Here are results for two compounds from PMC10671498, “Antiproliferative and Cytotoxic Properties of Propynoyl Betulin Derivatives against Human Ovarian Cancer Cells: In Vitro Studies” (International Journal of Molecular Sciences, 2023).

Like-named read-outs stand apart in the source and are kept apart here.

Format in all cases: cell-based, human
Data set [1] relates to SK-OV-3 cells. Put plainly: SRB cell proliferation assay, SK-OV-3. Particulars: for IC50: Homo sapiens. The procedure: This study used ovarian cancer cell lines, which are part of the panel of cell lines used as part of the NCI-60 Human Cell Lines Screen program, characterized by overexpression of the c-erbB2/neu (HER2) receptor [62, 63]. The human ovarian cancer cell lines (SK-OV-3 and OVCAR-3) were purchased from the American Type Culture Collection (ATCC®, Manassas, Virginia, USA). SK-OV-3 cells (ATCC No. HTB-77™) were cultured in McCoy’s 5A medium containing D-glucose (3 g/L), L-glutamine (0.219 g/L), and sodium bicarbonate (2.2 g/L) supplemented with 10% fetal bovine serum, 10 mM HEPES (pH 7.3–7.5), 100 U/mL penicillin, and 100 μg/mL streptomycin (all from Sigma Aldrich).
Betulin 1 and its derivatives were dissolved in dimethyl sulfoxide (DMSO; Sigma Aldrich) as a 15 mM stock solution. Working solutions were prepared through the dilution of stock solutions with culture medium. The final DMSO concentration in culture media was adjusted to 0.2%. The effect of tested compounds on the proliferation of SK-OV-3 and OVCAR-3 cells was measured using the In Vitro Toxicology Assay Kit, Sulforhodamine B based (Sigma Aldrich). Cells were seeded in 96-well plates (Greiner Bio-One, Kremsmünster, Austria) at an initial density of 3 × 10^3 cells per well in 200 µL of culture medium. After 24 h of incubation, betulin 1 and its derivatives at a concentration range of 0.1 μM to 30 μM were added to the wells. Control cultures were treated with vehicle alone (0.2% DMSO). The incubation periods for cells with test compounds were 1 day, 3 days, and 5 days. After appropriate incubation periods, culture media were removed, and cells were fixed in 10% trichloroacetic acid solution for 60 min at 4 °C. After fixation, the TCA solution was removed, and the plates were washed three times with deionized water (300 μL/well) and dried. At the next step, cells were stained with 0.4% sulforhodamine B for 30 min. The excess dye was removed by washing three times with 1% (vol/vol) acetic acid. The protein-bound dye was dissolved in 200 μL 10 mM Tris base solution. Absorbance was measured at 570 nm and 690 nm (reference wavelength) using the MRX Revelation plate reader (Dynex Technologies, Chantilly, VA, USA).
GraphPad Prism 10.0.2 (GraphPad Software Inc., San Diego, CA, USA) software was used for calculations and the statistical analysis of the IC50 values (Table 1). IC50 was determined by using the “nonlinear regression” mode, and the “log(inhibitor) vs. normalised response—Variable slope” equation was chosen in GraphPad Prism software for calculations. The obtained data were normalized to run from 100% down to 0%, and logarithms of concentration were used. Graphs (Figure 2, Figure 3, Figure 4, Figure 5 and Figure 8, and Supplementary Figure S1) were also prepared using this software. In the case of the lack of normal distribution or homogeneity of variances, the remaining results were analyzed using a non-parametric Kruskal–Wallis test with multiple comparisons. Post hoc analysis was performed with the non-parametric equivalent of Tukey’s test. A p value of <0.05 was considered statistically significant. Otherwise, a one-way ANOVA followed by a Tukey’s post hoc test was applied. t-tests was used to perform pairwise comparisons between group means. Analysis was performed using Statistica 13.1 software (StatSoft, Tulsa, OK, USA).

The test system of data set [2] is SK-OV-3 cells. Put plainly: DNA fragmentation assay (Cell Death Detection ELISA, cytoplasmic fraction), SK-OV-3. The settings on record: for DNA fragmentation (enrichment factor, internucleosomal DNA fragments): SK-OV-3, 24 h, 3, 10, 30 µM. The procedure:
(§1) Fragmentation of genomic DNA was determined by means of the Cell Death Detection ELISAPLUS kit (Roche, Basel, Switzerland). This method rests on the immunoenzymatic detection of DNA–histone complexes in the cytoplasmic cell fraction or cell culture supernatants. Cells were plated and cultured in 96-well plates (Greiner Bio-One) at the initial density of 5 × 10^3 cells per well in 100 µL of culture medium. Cells were allowed to attach and grow for 1 day prior to the addition of test reagents. Then, the media were replaced with the working solutions (3 µM, 10 µM, 30 µM), and cells were exposed to compounds 2–6 for 24 h. In some cases, 5 µM cyclosporin A (CsA, an inhibitor of the mitochondrial permeability transition) was added to the cells 30 min before treatment with the betulin derivative. Subsequently, cells were incubated concomitantly with both compounds. After a 24 h incubation period, plates were centrifuged (200× g; 10 min), media were removed, and cells were lysed for 30 min at room temperature. At the next step, the lysates were again spun (200× g; 10 min), and 20 µL of supernatants (cytoplasmic fractions) was moved to the new 96-well streptavidin-coated plate. In one experiment, the presence of mono- and oligonucleosomes was determined in 20 µL samples of centrifuged culture supernatants (media) to detect the permeability of plasma membrane (considered as an indicator of cell necrosis). Then, the sandwich ELISA assay was fulfilled according to the manufacturer’s protocol. Absorbance was measured at 405 nm and 490 nm (reference wavelength), and the enrichment factor of the cytoplasmic (or supernatant) fraction in mono- and oligonucleosomes was calculated according to the formula: EF = absorbance of sample cells/absorbance of control cells.
A high EF index in the cytoplasmic fraction (resulting from DNA fragmentation while maintaining the tightness of cell membranes) is a typical indicator of the relatively early stage of apoptosis.

In data set [3] the test system is SK-OV-3 cells. Nature of the data set: TMRM analysis of mitochondrial membrane potential. The settings on record: SK-OV-3, 3 h, 30 µM. The procedure: Tetramethylrhodamine methyl ester (Sigma Aldrich) was used for the assessment of changes in the transmembrane potential of mitochondria. TMRM is a fluorescent cationic dye accumulating in mitochondria in a potential-dependent manner. Cell cultures were prepared as described above for acridine orange staining. Cells were exposed to test solutions for 3 h, and then TMRM was added (final concentration 100 nM) followed by incubation for 30 min in the CO2 incubator. Prior to observation, the plates were centrifuged (250× g, 5 min), and the medium was changed to PBS. The cells were analyzed under the Nikon Eclipse TS-100F microscope and photographed.

In data set [4] the test system is SK-OV-3 cells. Put plainly: Plasma membrane permeability (DNA-histone complexes in culture medium). Particulars: SK-OV-3, 24 h, with 5 µM cyclosporin A added 30 min before. As to the method: as §1, with “After a 24 h incubation period, plates were centrifuged (200× g; 10 min), media were removed, and cells were lysed for 30 min at room temperature. At the next step, the lysates were again spun (200× g; 10 min), and 20 µL of supernatants (cytoplasmic fractions) was moved to the new 96-well streptavidin-coated plate.” left out, “Then, the sandwich ELISA assay was fulfilled according to the manufacturer’s protocol.” left out

With `C=C(C)[C@@H]1CC[C@]2(CO)CC[C@]3(C)[C@H](CC[C@@H]4[C@@]5(C)CC[C@H](O)C(C)(C)[C@@H]5CC[C@]43C)[C@@H]12` [Compound 1, lup-20(29)-ene-3β,28-diol, reference compound], the IC50 in the data set with SK-OV-3 cells [1] (72 h, SK-OV-3, 3 days treatment, SRB assay, read-out: IC50) was found to be 8210 nM; with SK-OV-3 cells [1] (120 h, SK-OV-3, 5 days treatment, SRB assay, read-out: IC50), 4590 nM. For the same compound, in the data set on SK-OV-3 cells [2], the “DNA fragmentation (enrichment factor, internucleosomal DNA fragments)” value is recorded as “significant increase”.
As for `C#CC(=O)OC[C@]12CC[C@@H](/C(C)=C/P(=O)(OCC)OCC)C1C1CCC3[C@@]4(C)CC[C@H](O)C(C)(C)C4CC[C@@]3(C)[C@]1(C)CC2` (stereo partly shown) [Compound 6, E-29-diethoxyphosphoryl-28-O-propynoylbetulin], the IC50 in the data set on SK-OV-3 cells [1] (SK-OV-3, 72 h) worked out at 290 nM; with SK-OV-3 cells [1] (SK-OV-3, 120 h), 260 nM. For the same compound, in the data set with SK-OV-3 cells [1] (SK-OV-3, SRB assay, 0.1–30 µM), the “concentration at which antiproliferative activity (decrease in the number of cells) was evident” value stood at 1 µM. Further, in the data set on SK-OV-3 cells [2], the “DNA fragmentation (enrichment factor, internucleosomal DNA fragments)” value is on record as “moderate increases”. Besides, in the data set on SK-OV-3 cells [2] (SK-OV-3, 24 h, with 5 µM cyclosporin A added 30 min before), the “effect of CsA on compound-induced cell death, DNA fragmentation” value is recorded as “almost completely prevented”. The “mitochondrial membrane potential (TMRM fluorescence)” value in the data set with SK-OV-3 cells [3] was “reduced the mitochondrial membrane potential”. In addition, in the data set with SK-OV-3 cells [4], the “effect of CsA on compound-induced cell death, plasma membrane permeability” value was “almost completely prevented”.
